Assays:
[1] = target: CDK2/Cyclin A2 (Homo sapiens) (UniProt P24941+P20248); test: Inhibition of full length human N-terminal GST-tagged CDK2 (1 to 298 residues)/Cyclin A2 (1 to 432 residues) expressed in baculovirus expression system using fluorescence labelled modified histone H1 as substrate at 50 times IC50 by electrophoretic mobility shift assay relative to control
[2] = target: T1, Tyrosine-protein kinase ITK/TSK (Homo sapiens) (UniProt Q08881); test: Inhibition of full length human N-terminal GST-tagged ITK (2 to 620 residues) expressed in baculovirus expression system using fluorescence labelled srctide as substrate at 50 times IC50 by electrophoretic mobility shift assay relative to control
T1 sequence (whole entry): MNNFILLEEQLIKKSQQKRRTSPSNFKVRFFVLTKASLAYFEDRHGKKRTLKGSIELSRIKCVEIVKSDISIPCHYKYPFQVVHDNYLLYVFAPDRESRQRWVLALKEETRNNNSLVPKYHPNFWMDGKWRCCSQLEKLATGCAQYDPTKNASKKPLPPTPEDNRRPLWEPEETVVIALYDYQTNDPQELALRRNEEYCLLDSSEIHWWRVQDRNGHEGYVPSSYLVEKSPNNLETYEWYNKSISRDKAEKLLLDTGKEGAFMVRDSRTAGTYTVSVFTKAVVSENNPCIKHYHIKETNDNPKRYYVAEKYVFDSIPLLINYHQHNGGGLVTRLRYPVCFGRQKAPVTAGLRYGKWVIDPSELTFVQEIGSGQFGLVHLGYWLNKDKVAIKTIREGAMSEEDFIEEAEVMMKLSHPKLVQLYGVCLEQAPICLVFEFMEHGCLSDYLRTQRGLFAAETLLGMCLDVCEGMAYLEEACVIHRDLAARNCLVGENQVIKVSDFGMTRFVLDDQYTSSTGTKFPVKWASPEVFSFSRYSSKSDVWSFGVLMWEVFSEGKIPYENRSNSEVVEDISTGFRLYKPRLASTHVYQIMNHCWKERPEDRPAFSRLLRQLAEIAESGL

[3] = target: Death-associated protein kinase 1 (Homo sapiens) (UniProt P53355); test: Inhibition of human N-terminal GST-tagged DAPK1 catalytic domain (1 to 289 residues) expressed in baculovirus expression system using fluorescence labelled DAPK1tide as substrate at 50 times IC50 by electrophoretic mobility shift assay relative to control
[4] = target: T2, Serine/threonine-protein kinase 4 (Homo sapiens) (UniProt Q13043); test: Inhibition of full length human N-terminal GST-tagged MST1 (1 to 487 residues) expressed in baculovirus expression system using fluorescence labelled IRS1 as substrate at 50 times IC50 by electrophoretic mobility shift assay relative to control
T2 sequence (whole entry): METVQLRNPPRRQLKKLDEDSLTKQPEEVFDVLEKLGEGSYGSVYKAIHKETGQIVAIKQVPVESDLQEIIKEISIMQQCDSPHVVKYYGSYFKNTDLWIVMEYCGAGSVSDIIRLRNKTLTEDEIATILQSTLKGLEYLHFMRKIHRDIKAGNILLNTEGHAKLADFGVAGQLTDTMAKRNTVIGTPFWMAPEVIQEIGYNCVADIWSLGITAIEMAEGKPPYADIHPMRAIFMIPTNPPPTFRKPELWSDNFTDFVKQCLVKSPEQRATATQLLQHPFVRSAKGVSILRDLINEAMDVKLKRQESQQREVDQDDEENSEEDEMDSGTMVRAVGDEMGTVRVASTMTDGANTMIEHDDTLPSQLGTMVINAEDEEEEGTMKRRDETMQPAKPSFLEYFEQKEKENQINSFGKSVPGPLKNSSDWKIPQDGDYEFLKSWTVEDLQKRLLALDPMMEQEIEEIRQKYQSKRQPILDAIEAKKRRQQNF

[5] = target: Mitogen-activated protein kinase 14 (Homo sapiens) (UniProt Q16539); test: Inhibition of human N-terminal GST-tagged p38alpha (9 to 352 residues) expressed in Escherichia coli using fluorescence labelled modified Erktide as substrate at 50 times IC50 by electrophoretic mobility shift assay relative to control
[6] = target: Mitogen-activated protein kinase 1 (Homo sapiens) (UniProt P28482); test: Inhibition of full length human N-terminal GST-tagged ERK2 (1 to 360 residues) expressed in Escherichia coli using fluorescence labelled modified Erktide as substrate at 50 times IC50 by electrophoretic mobility shift assay relative to control
[7] = target: Protein kinase C alpha type (Homo sapiens) (UniProt P17252); test: Inhibition of full length human N-terminal GST-tagged PKCalpha (1 to 672 residues) expressed in baculovirus expression system using fluorescence labelled PKC peptide substrate at 50 times IC50 by electrophoretic mobility shift assay relative to control
[8] = target: Tyrosine-protein kinase ABL1 (Homo sapiens) (UniProt P00519); test: Inhibition of full length human N-terminal His-tagged ABL (2 to 1130 residues) expressed in baculovirus expression system using fluorescence labelled ABLtide as substrate at 50 times IC50 by electrophoretic mobility shift assay relative to control
[9] = target: Fibroblast growth factor receptor 1 (Homo sapiens) (UniProt P11362); test: Inhibition of human N-terminal GST-tagged FGFR1 cytoplasmic domain (398 to 822 residues) expressed in baculovirus expression system using fluorescence labelled CSKtide as substrate at 50 times IC50 by electrophoretic mobility shift assay relative to control
Fibroblast growth factor receptor 1 (Homo sapiens), sequence (P11362 22-822 limits assumed): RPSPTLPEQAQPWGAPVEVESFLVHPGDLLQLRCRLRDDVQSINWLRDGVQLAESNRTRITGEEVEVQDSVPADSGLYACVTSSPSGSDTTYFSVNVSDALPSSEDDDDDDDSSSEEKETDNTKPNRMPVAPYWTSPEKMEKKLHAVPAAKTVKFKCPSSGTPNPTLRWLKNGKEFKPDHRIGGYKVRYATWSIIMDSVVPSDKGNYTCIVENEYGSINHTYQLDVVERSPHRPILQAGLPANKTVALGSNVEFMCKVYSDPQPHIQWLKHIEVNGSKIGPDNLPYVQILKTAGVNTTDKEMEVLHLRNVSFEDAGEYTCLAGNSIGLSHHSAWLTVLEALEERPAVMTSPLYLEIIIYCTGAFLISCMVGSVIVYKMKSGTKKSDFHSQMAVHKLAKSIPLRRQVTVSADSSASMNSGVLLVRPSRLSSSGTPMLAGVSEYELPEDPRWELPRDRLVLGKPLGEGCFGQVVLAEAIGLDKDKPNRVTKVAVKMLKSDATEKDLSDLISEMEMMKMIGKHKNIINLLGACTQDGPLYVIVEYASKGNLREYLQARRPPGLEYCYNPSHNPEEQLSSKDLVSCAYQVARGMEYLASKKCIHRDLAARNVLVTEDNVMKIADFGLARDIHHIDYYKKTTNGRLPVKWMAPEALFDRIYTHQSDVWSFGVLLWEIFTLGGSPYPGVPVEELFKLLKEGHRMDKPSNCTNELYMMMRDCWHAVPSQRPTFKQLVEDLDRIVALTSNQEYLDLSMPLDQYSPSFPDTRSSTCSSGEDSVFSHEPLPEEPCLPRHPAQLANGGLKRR

Death-associated protein kinase 1 (Homo sapiens), sequence (P53355 whole entry, looked up, the tested form may be a part): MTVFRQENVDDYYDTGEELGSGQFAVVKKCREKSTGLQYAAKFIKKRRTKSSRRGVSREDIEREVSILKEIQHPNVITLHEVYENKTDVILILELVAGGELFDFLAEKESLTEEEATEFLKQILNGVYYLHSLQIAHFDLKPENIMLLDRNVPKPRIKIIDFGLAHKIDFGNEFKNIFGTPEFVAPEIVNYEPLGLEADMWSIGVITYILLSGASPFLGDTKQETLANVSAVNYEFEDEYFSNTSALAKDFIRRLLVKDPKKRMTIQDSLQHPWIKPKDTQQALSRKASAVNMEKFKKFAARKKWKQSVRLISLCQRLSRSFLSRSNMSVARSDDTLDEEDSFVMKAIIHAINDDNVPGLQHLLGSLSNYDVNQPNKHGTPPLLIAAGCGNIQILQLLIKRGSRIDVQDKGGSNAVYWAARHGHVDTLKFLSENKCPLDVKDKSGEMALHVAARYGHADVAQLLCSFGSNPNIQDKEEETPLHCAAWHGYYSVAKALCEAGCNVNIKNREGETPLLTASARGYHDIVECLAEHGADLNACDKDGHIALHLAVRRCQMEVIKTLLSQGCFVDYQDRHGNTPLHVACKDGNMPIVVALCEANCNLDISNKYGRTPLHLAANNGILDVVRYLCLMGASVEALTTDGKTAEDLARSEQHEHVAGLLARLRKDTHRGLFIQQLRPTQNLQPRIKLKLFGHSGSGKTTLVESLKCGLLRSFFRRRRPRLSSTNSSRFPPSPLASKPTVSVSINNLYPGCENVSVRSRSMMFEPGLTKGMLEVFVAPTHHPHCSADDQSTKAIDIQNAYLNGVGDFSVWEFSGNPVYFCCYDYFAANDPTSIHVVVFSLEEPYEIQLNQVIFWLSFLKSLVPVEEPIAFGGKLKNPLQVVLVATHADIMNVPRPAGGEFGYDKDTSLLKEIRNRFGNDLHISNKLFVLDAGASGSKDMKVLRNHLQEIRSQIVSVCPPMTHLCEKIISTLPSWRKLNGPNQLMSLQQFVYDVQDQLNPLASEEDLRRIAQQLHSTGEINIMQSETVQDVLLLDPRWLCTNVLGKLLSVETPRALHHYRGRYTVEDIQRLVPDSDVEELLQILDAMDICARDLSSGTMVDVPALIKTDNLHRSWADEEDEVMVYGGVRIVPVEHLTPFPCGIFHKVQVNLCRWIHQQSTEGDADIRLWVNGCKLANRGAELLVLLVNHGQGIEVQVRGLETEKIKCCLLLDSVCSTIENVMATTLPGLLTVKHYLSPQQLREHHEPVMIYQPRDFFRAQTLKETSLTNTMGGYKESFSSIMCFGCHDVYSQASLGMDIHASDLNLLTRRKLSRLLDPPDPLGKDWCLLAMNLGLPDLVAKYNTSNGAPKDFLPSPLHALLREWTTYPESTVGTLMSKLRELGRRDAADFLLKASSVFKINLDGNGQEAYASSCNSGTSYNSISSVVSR
Mitogen-activated protein kinase 1 (Homo sapiens), sequence (P28482 whole entry, the tested form may be a part): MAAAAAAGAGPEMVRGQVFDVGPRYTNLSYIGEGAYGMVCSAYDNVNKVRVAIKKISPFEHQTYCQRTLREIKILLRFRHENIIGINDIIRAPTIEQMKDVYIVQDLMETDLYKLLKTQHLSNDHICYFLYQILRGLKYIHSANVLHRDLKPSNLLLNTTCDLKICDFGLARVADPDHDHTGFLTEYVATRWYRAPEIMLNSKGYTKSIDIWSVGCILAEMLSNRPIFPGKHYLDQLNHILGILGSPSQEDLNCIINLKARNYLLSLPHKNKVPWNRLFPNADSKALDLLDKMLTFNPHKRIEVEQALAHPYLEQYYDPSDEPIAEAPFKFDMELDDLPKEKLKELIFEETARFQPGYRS
Mitogen-activated protein kinase 14 (Homo sapiens), sequence (Q16539 whole entry, the tested form may be a part): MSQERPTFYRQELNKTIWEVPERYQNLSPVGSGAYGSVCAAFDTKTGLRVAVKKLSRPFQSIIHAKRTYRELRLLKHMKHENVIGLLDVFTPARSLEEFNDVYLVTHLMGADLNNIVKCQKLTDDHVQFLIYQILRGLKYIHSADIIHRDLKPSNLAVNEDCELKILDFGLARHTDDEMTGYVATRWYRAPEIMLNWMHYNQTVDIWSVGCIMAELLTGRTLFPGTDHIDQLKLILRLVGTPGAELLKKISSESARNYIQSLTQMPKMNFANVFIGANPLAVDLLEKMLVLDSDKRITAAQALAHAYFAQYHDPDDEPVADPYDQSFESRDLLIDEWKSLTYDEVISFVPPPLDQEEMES
Tyrosine-protein kinase ABL1 (Homo sapiens), sequence (P00519 whole entry, the tested form may be a part): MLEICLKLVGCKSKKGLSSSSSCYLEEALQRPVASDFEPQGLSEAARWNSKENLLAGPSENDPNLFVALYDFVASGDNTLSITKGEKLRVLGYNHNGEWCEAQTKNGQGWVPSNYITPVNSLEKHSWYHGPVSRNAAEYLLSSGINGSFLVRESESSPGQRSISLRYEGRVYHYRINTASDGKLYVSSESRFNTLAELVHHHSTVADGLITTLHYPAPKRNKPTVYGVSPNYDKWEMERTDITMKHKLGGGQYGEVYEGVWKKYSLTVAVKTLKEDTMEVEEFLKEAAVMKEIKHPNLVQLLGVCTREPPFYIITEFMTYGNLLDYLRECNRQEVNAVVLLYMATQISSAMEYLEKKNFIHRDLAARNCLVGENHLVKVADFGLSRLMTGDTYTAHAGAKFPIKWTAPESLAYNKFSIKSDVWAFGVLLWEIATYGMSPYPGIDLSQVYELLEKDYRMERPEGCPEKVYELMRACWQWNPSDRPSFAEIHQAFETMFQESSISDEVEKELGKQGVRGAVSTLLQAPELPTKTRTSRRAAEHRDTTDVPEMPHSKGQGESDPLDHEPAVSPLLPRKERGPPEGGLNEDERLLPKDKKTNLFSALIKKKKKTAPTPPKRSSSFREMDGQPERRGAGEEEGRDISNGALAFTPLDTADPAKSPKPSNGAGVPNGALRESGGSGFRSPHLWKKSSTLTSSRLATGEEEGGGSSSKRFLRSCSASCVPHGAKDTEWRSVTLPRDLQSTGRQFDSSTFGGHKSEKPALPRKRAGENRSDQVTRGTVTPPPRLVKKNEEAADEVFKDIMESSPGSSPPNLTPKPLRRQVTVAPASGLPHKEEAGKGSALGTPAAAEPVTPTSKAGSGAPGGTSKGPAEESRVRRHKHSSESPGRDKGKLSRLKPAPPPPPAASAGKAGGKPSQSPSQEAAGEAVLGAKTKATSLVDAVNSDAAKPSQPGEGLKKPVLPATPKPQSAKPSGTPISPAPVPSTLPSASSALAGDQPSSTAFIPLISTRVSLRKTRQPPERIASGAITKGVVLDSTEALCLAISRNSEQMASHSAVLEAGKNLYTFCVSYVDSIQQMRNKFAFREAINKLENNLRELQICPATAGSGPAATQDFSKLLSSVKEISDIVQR

Structure (SMILES): O=C(Nc1ccccc1)c1n[nH]c2ccccc12
- inhibition [1]: 86.3%
- inhibition [2]: 79.7%
- inhibition [3]: 32.9%
- inhibition [4]: 31.9%
- inhibition [5]: 6.9%
- inhibition [6]: 7%
- inhibition [7]: 2.4%
- inhibition [8]: 5.3%
- inhibition [9]: 17%

Structure (SMILES): O=C(Nc1ccc(CN2CCN(c3ccccc3)CC2)cc1)c1n[nH]c2ccccc12
- inhibition [1]: 4.5%
- inhibition [2]: 37.4%
- inhibition [3]: 8.3%
- inhibition [4]: 32.6%
- inhibition [5]: -2.6%
- inhibition [6]: -2.1%
- inhibition [7]: -0.9%
- inhibition [8]: 3.4%
- inhibition [9]: -1%

Structure (SMILES): O=C(Nc1ccc(C(=O)N2CCN(c3ccccc3)CC2)cc1)c1n[nH]c2ccccc12
- inhibition [1]: 14.9%
- inhibition [2]: 50.8%
- inhibition [3]: 13%
- inhibition [4]: 16.8%
- inhibition [5]: -1.8%
- inhibition [6]: -0.8%
- inhibition [7]: 10.6%
- inhibition [8]: 3.9%
- inhibition [9]: 6.3%
